The species named for data set [1] is Cavia porcellus. Description: Inhibition of voltage-dependent calcium channel mediated calcium influx in guinea-pig ileum assessed as Cacl2 induced maximal smooth muscle contraction at 490 uM incubated for 15 mins relative to control. Format: tissue-based.
The species named for data set [2] is Cavia porcellus. Nature of the data set: Inhibition of voltage-dependent calcium channel mediated calcium influx in guinea-pig ileum assessed as Cacl2 induced maximal smooth muscle contraction at 120 uM incubated for 15 mins relative to control. Format: tissue-based.
The nature of data set [3]: Toxicity in iv dosed Swiss-Webster mouse by up-and-down method. Format: organism-based. Particulars: in vivo.
Data set [4] concerns the target T1, Neuronal acetylcholine receptor subunit alpha-7 (Rattus norvegicus, UniProt Q05941). Nature of the data set: Displacement of 125I-alpha-bungarotoxin from rat brain alpha7 nAChR by radioligand binding assay.
Data set [5] addresses T1, Neuronal acetylcholine receptor subunit alpha-7. Nature of the data set: Agonist activity at rat brain alpha7 nAChR.
Data set [6] in a line: Toxicity in ip dosed albino rat. The class given is organism-based. To be noted: in vivo.
Data set [7] deals with Rattus norvegicus. Description: Protection against pentylenetetrazol-induced convulsion in rat at 50 to 100 mg/kg, ip relative to control. The class given is functional. Particulars: dose 50-100 mg/kg.
For data set [8], the species on record is Rattus norvegicus. Description: Potentiation of diphenylhydantoin-induced anticonvulsant activity in rat relative to control. The class given is functional.
The species entered for data set [9] is Rattus norvegicus. Nature of the data set: Potentiation of morphine-induced analgesia in rat relative to control. Format: functional.
Data set [10] is filed under the species Mus musculus. Description: Antiaggressive activity in mouse assessed as reduction in foot shock induced fighting behavior. Format: functional. Set-up: scale not given: the % may be the effect or the level left.
For data set [11], the species on record is Mus musculus. Nature of the data set: Antipsychotic activity in trained mouse assessed as reduction in ability of mouse to remain on rotating rod. The class given is functional.
The species named for data set [12] is Mus musculus. Description: Antipsychotic activity in albino mouse assessed as potentiation of hexobarbital-induced sleeping time. The class given is functional.
The species entered for data set [13] is Mus musculus. Description: Antipsychotic activity in mouse assessed as reduction in amphetamine-induced toxicity. Format: functional. Set-up: scale not given: the % may be the effect or the level left.
A short description of data set [14]: Toxicity in male rat. Particulars: in vivo.
Data set [15] can be described thus: Toxicity in female rat. Particulars: in vivo.
The nature of data set [16]: Neuroprotective activity against NMDA-induced cell death in rat neurons assessed as cell survival pretreated for 45 mins followed by NMDA stimulation and measured after 30 mins by MTT assay (reference value: […]%). The class given is functional, Neuron. To be noted: time 75 min; 1.25 h. For orientation: Tetrazolium dyes change colour on reduction, which living cells bring about.

Data set [17] in a line: Neuroprotective activity against Bay-K8644-induced calcium mobilization in rat forebrain derived neurons assessed as calcium elevation at 100 nM (reference value: 521 nM). Format: functional, Neuron. A general note: A change in cytosolic calcium serves as a functional read-out for many receptors and channels.
Data set [18] is described as follows: Neuroprotective activity against glutamate-induced calcium mobilization in rat forebrain derived neurons assessed as calcium elevation at 100 nM (reference value: 811 nM). Format: functional, Neuron.
Data set [19] can be described thus: Neuroprotective activity against glutamate-induced cell death in rat forebrain derived neurons assessed as neuron death at 100 nM incubated for 45 mins (reference value: 55%). The class given is functional. To be noted: 0.75 h.
The next data set deals with Acetylcholinesterase (Electrophorus electricus, UniProt O42275).
Sequence of Acetylcholinesterase (O42275 whole entry): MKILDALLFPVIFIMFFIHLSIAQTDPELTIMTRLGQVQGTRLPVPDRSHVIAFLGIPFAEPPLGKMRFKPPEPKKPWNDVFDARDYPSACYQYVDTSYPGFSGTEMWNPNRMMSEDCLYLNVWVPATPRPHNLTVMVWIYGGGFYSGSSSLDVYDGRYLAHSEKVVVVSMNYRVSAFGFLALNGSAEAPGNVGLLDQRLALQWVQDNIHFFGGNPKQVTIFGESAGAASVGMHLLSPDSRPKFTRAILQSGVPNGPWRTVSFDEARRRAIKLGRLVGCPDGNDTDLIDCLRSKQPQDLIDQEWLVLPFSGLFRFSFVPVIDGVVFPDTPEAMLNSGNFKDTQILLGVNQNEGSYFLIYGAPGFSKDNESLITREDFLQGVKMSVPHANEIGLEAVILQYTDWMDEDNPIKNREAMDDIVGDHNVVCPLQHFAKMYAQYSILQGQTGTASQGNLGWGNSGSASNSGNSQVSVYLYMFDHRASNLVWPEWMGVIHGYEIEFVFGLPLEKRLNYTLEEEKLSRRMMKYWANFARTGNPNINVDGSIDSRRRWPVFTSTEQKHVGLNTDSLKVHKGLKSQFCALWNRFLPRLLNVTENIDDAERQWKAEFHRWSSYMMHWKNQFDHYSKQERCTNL
A short description of data set [20]: Toxicity in ip dosed mouse. Format: organism-based. To be noted: in vivo.
Data set [21] relates to Rattus norvegicus. Description: Antihypertensive activity in spontaneously hypertensive rat assessed as reduction in blood pressure at 50 mg/kg, po measured after 5 hr relative to control. Format: functional. Also noted: scale not given: the % may be the effect or the level left.
Data set [22] relates to Rattus norvegicus. Description: Antihypertensive activity in spontaneously hypertensive rat assessed as reduction in blood pressure at 50 mg/kg, po measured after 3 hrs relative to control. The class given is functional. Set-up: scale not given: the % may be the effect or the level left.
In data set [23] the test system is Rattus norvegicus. Description: Antihypertensive activity in spontaneously hypertensive rat assessed as reduction in blood pressure at 50 mg/kg, po measured after 1 hr relative to control. The class given is functional. Also noted: scale not given: the % may be the effect or the level left.
The target of data set [24] is T2, Neuronal acetylcholine receptor; alpha4/beta2 (Homo sapiens, UniProt P17787+P43681). Description: Potency index, ratio of nicotine Ki to test compound Ki for Displacement of [3H]cytisine from human alpha4beta2 nAChR by Cheng-Prusoff equation analysis. The class given is protein-complex assay. (In general: Displacement assays read how much labelled ligand stays bound in the presence of the test substance.)
T2 sequence (P17787 whole entry): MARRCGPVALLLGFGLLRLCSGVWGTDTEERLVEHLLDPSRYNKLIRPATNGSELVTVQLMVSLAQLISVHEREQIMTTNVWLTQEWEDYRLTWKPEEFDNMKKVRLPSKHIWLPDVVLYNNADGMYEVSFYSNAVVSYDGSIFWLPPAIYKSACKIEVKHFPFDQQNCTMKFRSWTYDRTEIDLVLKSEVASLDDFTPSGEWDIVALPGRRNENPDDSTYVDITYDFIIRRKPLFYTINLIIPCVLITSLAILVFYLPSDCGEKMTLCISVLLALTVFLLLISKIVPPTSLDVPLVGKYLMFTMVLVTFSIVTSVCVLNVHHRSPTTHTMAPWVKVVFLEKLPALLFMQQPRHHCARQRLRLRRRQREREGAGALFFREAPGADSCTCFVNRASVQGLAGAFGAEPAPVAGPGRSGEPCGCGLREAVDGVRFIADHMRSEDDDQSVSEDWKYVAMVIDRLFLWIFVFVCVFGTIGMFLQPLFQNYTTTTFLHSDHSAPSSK
T2 sequence (P43681 whole entry): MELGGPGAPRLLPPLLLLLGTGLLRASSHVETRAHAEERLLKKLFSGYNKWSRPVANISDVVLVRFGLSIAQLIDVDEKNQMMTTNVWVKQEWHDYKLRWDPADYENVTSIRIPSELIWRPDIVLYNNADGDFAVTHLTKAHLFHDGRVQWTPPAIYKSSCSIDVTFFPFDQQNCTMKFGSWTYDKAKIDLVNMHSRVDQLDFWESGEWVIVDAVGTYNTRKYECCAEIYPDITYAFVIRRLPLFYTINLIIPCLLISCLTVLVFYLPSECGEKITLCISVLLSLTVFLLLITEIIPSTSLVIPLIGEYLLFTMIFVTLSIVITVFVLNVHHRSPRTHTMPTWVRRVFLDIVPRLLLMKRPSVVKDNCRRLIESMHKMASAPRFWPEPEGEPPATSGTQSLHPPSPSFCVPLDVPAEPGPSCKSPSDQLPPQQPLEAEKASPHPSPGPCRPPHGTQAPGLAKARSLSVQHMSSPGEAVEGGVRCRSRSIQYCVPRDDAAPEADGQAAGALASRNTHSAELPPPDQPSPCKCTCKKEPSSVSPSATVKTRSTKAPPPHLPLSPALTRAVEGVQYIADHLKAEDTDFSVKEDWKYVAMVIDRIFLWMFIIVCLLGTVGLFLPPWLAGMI

Data set [25] deals with T2, Neuronal acetylcholine receptor; alpha4/beta2. Description: Potency index, ratio of nicotine IC50 to test compound IC50 for Displacement of [3H]cytisine from human alpha4beta2 nAChR by radioligand competition analysis. Format: protein-complex assay.
Data set [26] shares this target.
Data set [27] shares this target. This is another data set of the same source.
Data set [28] concerns the target Dopamine beta-hydroxylase (Bos taurus, UniProt P15101). Description: Inhibition of bovine adrenal medulla DBH incubated for 25 mins.
A short description of data set [29]: In vivo inhibition of DBH in human assessed as reduction in 3-methoxy-4-hydroxy-phenylglycol level in cerebrospinal fluid at 1.12g administered for 10 to 20 days. Format: functional. To be noted: time 10-20 day.
A short description of data set [30]: In vivo inhibition of DBH in rat assessed as norepinephrine expression in rat brain at 100 mg/kg, ip administered as single dose measured after 3 hrs by spectrophotofluorometric analysis (reference value: 0.42 ug/g). Format: functional, organism-based.
Data set [31] can be described thus: In vivo inhibition of DBH in rat assessed as norepinephrine expression in rat brain at 100 mg/kg, ip administered as single dose measured after 3 hrs by spectrophotofluorometric analysis (reference value: 0.22 ug/g). Format: functional, organism-based.
Data set [32] has as its target T3, Dopamine beta-hydroxylase (Bos taurus) (UniProt P15101).
T3 sequence (whole entry): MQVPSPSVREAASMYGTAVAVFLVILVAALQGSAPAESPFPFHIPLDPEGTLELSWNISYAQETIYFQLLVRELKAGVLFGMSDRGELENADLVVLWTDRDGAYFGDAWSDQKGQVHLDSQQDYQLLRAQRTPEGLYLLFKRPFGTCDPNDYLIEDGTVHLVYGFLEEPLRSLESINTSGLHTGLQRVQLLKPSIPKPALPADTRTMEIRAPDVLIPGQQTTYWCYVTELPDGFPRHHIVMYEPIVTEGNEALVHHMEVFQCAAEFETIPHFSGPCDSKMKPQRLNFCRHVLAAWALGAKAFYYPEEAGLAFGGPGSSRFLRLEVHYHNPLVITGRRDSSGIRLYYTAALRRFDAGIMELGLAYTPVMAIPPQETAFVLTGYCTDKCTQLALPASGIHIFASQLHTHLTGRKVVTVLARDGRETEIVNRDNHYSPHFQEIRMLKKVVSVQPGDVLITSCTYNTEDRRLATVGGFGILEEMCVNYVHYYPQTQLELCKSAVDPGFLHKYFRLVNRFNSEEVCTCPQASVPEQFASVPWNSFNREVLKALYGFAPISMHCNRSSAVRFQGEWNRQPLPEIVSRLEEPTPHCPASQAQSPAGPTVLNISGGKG
Description: Inhibition of bovine adrenal medulla DBH at 0.5 uM relative to control.

The target in data set [33] is T3, Dopamine beta-hydroxylase (Bos taurus). Nature of the data set: Inhibition of bovine adrenal medulla DBH at 1 uM relative to control.
Data set [34] shares this target. Nature of the data set: Inhibition of bovine adrenal medulla DBH at 0.05 uM relative to control.
For data set [35] the target is unchanged. Nature of the data set: Inhibition of bovine adrenal medulla DBH at 0.005 uM relative to control.
In data set [36] the target is T1, Neuronal acetylcholine receptor subunit alpha-7.
Description: Displacement of [3H]MLA from rat alpha7 nAChR by liquid scintillation counting
For data set [37], the target named is Neuronal acetylcholine receptor; alpha4/beta2 (Rattus norvegicus, UniProt P09483+P12390).
Sequence of Neuronal acetylcholine receptor; alpha4/beta2 (Rattus norvegicus, UniProt P09483+P12390) (P09483 whole entry): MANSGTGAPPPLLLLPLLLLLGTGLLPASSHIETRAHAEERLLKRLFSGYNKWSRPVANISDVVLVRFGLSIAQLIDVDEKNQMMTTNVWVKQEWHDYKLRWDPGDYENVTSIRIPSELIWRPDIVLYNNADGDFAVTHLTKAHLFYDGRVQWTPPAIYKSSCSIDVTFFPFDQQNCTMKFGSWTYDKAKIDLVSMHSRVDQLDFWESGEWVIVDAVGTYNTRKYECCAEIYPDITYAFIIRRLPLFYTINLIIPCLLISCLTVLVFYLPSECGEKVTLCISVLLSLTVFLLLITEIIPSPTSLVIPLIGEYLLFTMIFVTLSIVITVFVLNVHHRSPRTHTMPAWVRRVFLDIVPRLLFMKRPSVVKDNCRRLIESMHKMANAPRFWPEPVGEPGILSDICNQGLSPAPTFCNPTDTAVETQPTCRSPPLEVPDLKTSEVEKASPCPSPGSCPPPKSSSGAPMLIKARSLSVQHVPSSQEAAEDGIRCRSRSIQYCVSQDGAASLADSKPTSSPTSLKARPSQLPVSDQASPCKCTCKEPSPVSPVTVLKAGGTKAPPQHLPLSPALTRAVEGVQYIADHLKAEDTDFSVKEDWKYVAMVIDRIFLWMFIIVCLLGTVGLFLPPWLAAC
Sequence of Neuronal acetylcholine receptor; alpha4/beta2 (Rattus norvegicus, UniProt P09483+P12390) (P12390 whole entry): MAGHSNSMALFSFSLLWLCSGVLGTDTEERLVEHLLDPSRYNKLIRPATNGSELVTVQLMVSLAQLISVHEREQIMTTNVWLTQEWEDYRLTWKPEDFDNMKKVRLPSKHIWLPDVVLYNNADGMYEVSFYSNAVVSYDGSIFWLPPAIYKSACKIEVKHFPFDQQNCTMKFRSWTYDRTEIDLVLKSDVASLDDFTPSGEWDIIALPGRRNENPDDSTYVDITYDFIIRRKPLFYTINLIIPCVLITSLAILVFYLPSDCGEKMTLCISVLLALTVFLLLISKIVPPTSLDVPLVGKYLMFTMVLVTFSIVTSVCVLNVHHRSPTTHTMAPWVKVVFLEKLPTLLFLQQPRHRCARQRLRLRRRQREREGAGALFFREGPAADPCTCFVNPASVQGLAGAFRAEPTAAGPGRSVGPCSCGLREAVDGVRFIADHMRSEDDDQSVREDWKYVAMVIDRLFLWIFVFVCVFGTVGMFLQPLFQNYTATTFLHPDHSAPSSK

Each structure is given as a SMILES string. pEC50, pIC50, pKi: −log10 of the molar value.

T1 sequence (Q05941 whole entry): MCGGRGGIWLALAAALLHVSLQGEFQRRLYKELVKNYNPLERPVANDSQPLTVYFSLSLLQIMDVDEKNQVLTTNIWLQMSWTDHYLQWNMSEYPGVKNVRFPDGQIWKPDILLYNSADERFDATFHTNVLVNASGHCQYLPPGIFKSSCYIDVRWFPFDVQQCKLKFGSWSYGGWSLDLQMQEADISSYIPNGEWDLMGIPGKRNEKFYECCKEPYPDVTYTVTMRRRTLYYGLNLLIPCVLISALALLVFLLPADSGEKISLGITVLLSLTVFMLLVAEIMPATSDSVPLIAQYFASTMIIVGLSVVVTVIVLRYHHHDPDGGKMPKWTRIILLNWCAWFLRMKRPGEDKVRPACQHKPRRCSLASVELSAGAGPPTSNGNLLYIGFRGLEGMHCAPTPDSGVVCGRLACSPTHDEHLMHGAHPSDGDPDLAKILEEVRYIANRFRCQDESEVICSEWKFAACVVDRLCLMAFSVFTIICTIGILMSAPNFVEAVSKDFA

With `COC(=O)c1cncc2c1C[C@H](O)[C@@H]2C`, the inhibition in the data set filed under Cavia porcellus [1] came to 45%; in the data set filed under Cavia porcellus [2], 90%.

Turning to `c1cncc([C@@H]2CCCCN2)c1` [ANABASINE], the LD50 in data set [3] was determined as 16 mg/kg. For the same compound, the negative-log Ki (pKi) in data set [4] was 6.41. The same compound gave a pEC50 in [5] of 4.74.

In turn, `C=Cc1cncc2c1CCOC2=O` registered a 50% lethal dose (LD50) in [6] of 276 mg/kg. In addition, the Activity in the data set on Rattus norvegicus [7] came to 70%; in the data set filed under Rattus norvegicus [8], 60%; in the data set filed under Rattus norvegicus [9], 150%; in the data set filed under Mus musculus [10], 60%; in the data set filed under Mus musculus [11] it was 80%; in the data set filed under Mus musculus [12], 80%. Further, in the data set listed under Mus musculus [13], the Activity stood at 88%.

For the compound `C/C=C1\[C@H]2C=C(C)C[C@]1(N)c1ccc(=O)[nH]c1C2` [HUPERZINE A], the LD50 in [14] is over 4 mg/kg; in data set [15], 2 mg/kg. Moreover, the Activity worked out at 85% in data set [16], 505 nM in data set [17], 668 nM in [18] and 30% in [19].

On to `C=CC1C2C=C(CO)CC1(N)c1ccc(=O)[nH]c1C2` (stereo not drawn), for which the pIC50 against Acetylcholinesterase is 4.62.

Regarding `O=C(O)c1ccc(Cc2ccc(O)cc2)cn1`, the 50% lethal dose (LD50) in data set [20] worked out at 350 mg/kg. Moreover, the Activity in the data set on Rattus norvegicus [21] is 23%; in the data set with Rattus norvegicus [22], 16%; in the data set with Rattus norvegicus [23], 21%.

Take `C[C@@H]1CC2C3Cn4c(cccc4=O)C(CN2C)C31` (stereo partly drawn): the Ratio Ki in data set [24] is 5. Further, in [25], the Ratio IC50 stood at 5. In [26], this compound gave a negative-log Ki (pKi) of 9.49. The compound further gave a pIC50 in [27] of 9.02.

Take `CCCCc1ccc(C(=O)O)nc1` [FUSARIC ACID]: the pIC50 in data set [28] was 7.30. Besides, the “inhibition (INH)” value in [29] was 25%. Also, the IC50 in [30] was determined as 0.4 µg/g; in data set [31], 0.1 µg/g. Also, the inhibition in data set [32] turned out to be 89%; in data set [33], 92%; in data set [34], 58%; in data set [35], 20%.

For `O=c1c(O)ccc2n1CC1CNC2C1` (stereo not drawn), the figures for the pKi in [36] and in data set [37] were 3.59 and 4.85, respectively.

The term inhibition denotes the drop in the measured response relative to a control, in per cent. What is called LD50 is the dose at which mortality reaches 50%. What is called pKi is the negative decadic logarithm of the Ki, by convention in mol/L. The term pEC50 denotes −log10 of the EC50, conventionally taken in molar units. Broadly, the pIC50 is the IC50 on a negative log10 scale, so that one unit is a factor of ten.

The record behind these values is ChEMBL document CHEMBL4673260, “Pyridine alkaloids with activity in the central nervous system” (Bioorg Med Chem, 2020).
